# Tested on: 3T3-L1 cells
# Assay: Adipogenesis in 3T3-L1 cells, lipid droplets stained with oil-red O
# Type: cell-based, mouse
# Conditions: 14 μM, day 2 to 4 during adipogenesis; stained at day 6
# Procedure: (§1) The effect of prostaglandin on PPAR-gamma activity in adipocytes was investigated. After treatment with a medium that induces cell differentiation, 3T3-L1 cells were treated from day 2 to 4 during adipogenesis with 14 μM 15-keto PGE2, 13,14-dihydro-15-keto PGE2, 15-keto PGF2α, 13,14-dihydro-15-keto PGF2α, or 4.5 μM of BRL49653, a PPAR-gamma agonist. See Forman et al., Cell (1995) 83:803-812. At day 6, aggregates of lipid droplets were stained with oil-red O for observation. […] After being induced to differentiate for two days, the 3T3-L1 cells were transfected with a reporter gene.
row,SMILES,"adipogenesis (lipid droplets, oil-red O)"
1,CCCCCC(=O)/C=C/[C@H]1[C@H](O)CC(=O)[C@@H]1C/C=C\CCCC(=O)O [15-keto PGE2],effectively enhanced adipogenesis at a level similar to BRL49653

# Target: T1, PPAR-gamma (Homo sapiens, UniProt P37231)
# T1 construct: expressed in transfected cells; host or cells: 3T3-L1 cells
# T1 sequence (P37231 238-503 limits assumed): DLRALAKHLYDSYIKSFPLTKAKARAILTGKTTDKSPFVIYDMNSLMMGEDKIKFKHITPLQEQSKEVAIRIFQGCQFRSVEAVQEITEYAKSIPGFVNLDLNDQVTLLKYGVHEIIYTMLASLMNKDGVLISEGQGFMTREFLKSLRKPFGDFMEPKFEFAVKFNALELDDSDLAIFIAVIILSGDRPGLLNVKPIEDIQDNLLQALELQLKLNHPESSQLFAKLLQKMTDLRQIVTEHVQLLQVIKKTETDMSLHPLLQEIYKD
# Assay: Luciferase reporter with PPAR-gamma ligand-binding domain fused to GAL4 DNA-binding domain in 3T3-L1 cells
# Type: cell-based
# Conditions: not given
# Source text: A luciferase reporter gene was transfected to 3T3-L1 cells together with the ligand-binding domain of PPAR-alpha, PPAR-gamma or PPAR-delta fused to a yeast GAL4 DNA-binding domain.
row,activation of PPAR-gamma (GAL4-LBD luciferase reporter),SMILES
1,activated,CCCCCC(=O)/C=C/[C@H]1[C@H](O)CC(=O)[C@@H]1C/C=C\CCCC(=O)O [15-keto PGE2]
2,activated,CCCCCC(=O)/C=C/[C@@H]1[C@@H](C/C=C\CCCC(=O)O)[C@@H](O)C[C@H]1O [15-keto PGF2α]

# Target: T2, recombinant mouse PGR-2 protein (Mus musculus, UniProt Q8VDQ1)
# T2 construct: GST (N); made in house; host or cells: E. coli
# T2 sequence (Q8VDQ1 whole entry): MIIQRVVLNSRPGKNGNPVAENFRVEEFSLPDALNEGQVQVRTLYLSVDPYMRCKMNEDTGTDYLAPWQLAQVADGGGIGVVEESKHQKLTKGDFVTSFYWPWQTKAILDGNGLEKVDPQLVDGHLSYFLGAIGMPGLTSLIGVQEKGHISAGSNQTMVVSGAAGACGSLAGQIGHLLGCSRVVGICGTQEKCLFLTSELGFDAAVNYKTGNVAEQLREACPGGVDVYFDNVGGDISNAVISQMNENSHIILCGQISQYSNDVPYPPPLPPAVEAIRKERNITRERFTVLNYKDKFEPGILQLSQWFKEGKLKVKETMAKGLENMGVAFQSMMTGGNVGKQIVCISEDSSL
# Assay: Substrate specificity and kinetics of recombinant PGR-2 (NADPH oxidation, absorbance at 490 nm)
# Type: biochemical
# Conditions: 15-keto PGE2 replaced with the test substrate; 0.5 mM NADPH, 37° C., 10 minutes
# Procedure: Mouse PGR-2 was recombinantly expressed in E. coli as a GST fusion protein following standard procedures. The recombinant PGR-2 protein thus obtained was used to determine substrate specificity and enzymatic kinetics.
# (§2) Enzymatic activity was determined as follows. 10 μg of the recombinant mouse PGR-2 protein was incubated at 37° C. in a reaction buffer containing 0.1M Tris-HCl (pH 7.4), 0.5 mM NADPH, and 0.57 mM 15-keto PGE2. The reaction was conducted at 37° C. in the dark for 10 minutes and terminated by adding 700 μl of a buffer which contained 50 mM potassium hydrogen phthalate, pH 3.0, and 1% Tween 20. 200 μl of a color development reagent, which contained 790 μM indonitrotetrazolium chloride, 60 μM phenazene methosulfate, and 1% Tween 20, was added to oxidize any unreacted NADPH. Absorbance at 490 nm was measured by an ELISA plate reader. A standard curve was generated using reaction buffers containing serially diluted amounts of NADPH.
# Substrate specificity of PGR-2 was determined using the just-described procedure, except that 15-keto PGE2 was replaced with each of six prostaglandin substrates, each of three downstream metabolites, or leukotriene B4.
# Unlike PGR/LTB4DH, PGR-2 used NADPH as a cofactor much more efficiently than NADH.
row,specific activity as substrate of PGR-2,SMILES
1,no specific activity was detected,"CCCCCC(=O)CC[C@H]1[C@H](O)CC(=O)[C@@H]1C/C=C\CCCC(=O)O [13,14-dihydro-15-keto PGE2, reference compound]"
2,no specific activity was detected,CCCCC[C@H](O)/C=C/[C@@H]1[C@@H](CC(=O)CCCCC(=O)O)[C@@H](O)C[C@H]1O [6-keto PGF1α]
3,no specific activity was detected,CCCCC[C@H](O)/C=C/[C@@H]1[C@@H](C/C=C\CCCC(=O)O)[C@H](O)C[C@H]1O [PGF2β]
4,reacted specifically,CCCCCC(=O)/C=C/[C@@H]1[C@@H](C/C=C\CCCC(=O)O)[C@@H](O)C[C@H]1O [15-keto PGF2α]
5,reacted specifically,CCCCCC(=O)/C=C/[C@@H]1[C@@H](CCCCCCC(=O)O)[C@@H](O)C[C@H]1O [15-keto PGF1α]
6,reacted specifically,CCCCCC(=O)/C=C/[C@H]1[C@H](O)CC(=O)[C@@H]1CCCCCCC(=O)O [15-keto PGE1]
7,no specific activity was detected,"CCCCCC(=O)CC[C@@H]1[C@@H](C/C=C\CCCC(=O)O)[C@@H](O)C[C@H]1O [13,14-dihydro-15-keto PGF2α, reference compound]"
8,no specific activity was detected,"CCCCCC(=O)CCC1C(=O)CC(O)C1C/C=C\CCCC(=O)O (stereo not shown) [13,14-dihydro-15-keto PGD2]"
9,no specific activity was detected,CCCCC/C=C\C[C@@H](O)/C=C/C=C/C=C\[C@@H](O)CCCC(=O)O [leukotriene B4]

row,SMILES,specific activity as substrate of PGR-2
1,CCCCC[C@H](O)/C=C/[C@@H]1[C@@H](C/C=C\CCCC(=O)O)[C@@H](O)C[C@@H]1O [11b-PGF2α],no specific activity was detected

# Same assay, conditions: kinetics studies, recombinant PGR-2
row,"efficiency of PGR-2 catalyzed conversion into 13,14-dihydro-15-keto prostaglandin",SMILES
1,most efficiently,CCCCCC(=O)/C=C/[C@H]1[C@H](O)CC(=O)[C@@H]1C/C=C\CCCC(=O)O [15-keto PGE2]

# Tested on: IRS-2
# Assay: IRS-2 protein expression in 3T3-L1 cells
# Type: cell-based, mouse
# Conditions: in the presence of insulin and dexamethasone
# Source text: (§3) Also examined was the ability of 15-keto PGE2 to induce protein expression of adipogenesis-specific, PPAR-gamma target genes, i.e., IRS-1 and -2.
row,SMILES,IRS-2 expression
1,CCCCCC(=O)/C=C/[C@H]1[C@H](O)CC(=O)[C@@H]1C/C=C\CCCC(=O)O [15-keto PGE2],enhanced the expression to a level similar to MIX

# Tested on: Female diabetic mice (C57BLKS/J-m+/+Lep^db)
# Assay: Blood glucose levels in insulin-resistant, hyperglycemic diabetic mice
# Type: in vivo, mouse
# Conditions: 25 mg/kg intraperitoneally twice a day for two days
# Procedure: The in vivo effect of another inhibitor, 2,2′-dihydroxychalcone, on glucose metabolism was also investigated. Female diabetic mice were obtained from the Jackson Laboratory (C57BLKS/J-m+/+Lep^db, 12 to 13 weeks old). These mice were characterized as insulin-resistant and hyperglycemic. 25 mg/kg of 2,2′-dihydroxychalcone (n=8) or placebo (n=4, final concentration against body fluid: 0.5% DMSO/1% ethanol) was injected intraperitoneally to the mice twice a day for two days. The mice were then fasted from the 48th hour through 52nd hour after the first injection. Blood samples were collected from the retro-orbital sinus before the first injection, and every two hours after two days of treatment. Blood glucose levels were measured by an electrode-type blood glucose meter (HORIBA, AntSense II, Japan).
row,SMILES,blood glucose levels compared to placebo controls
1,"O=C(/C=C/c1ccccc1O)c1ccccc1O [2,2′-dihydroxychalcone]",significant reduction

# Tested on: 15-keto prostaglandin-Δ^13-reductase
# Assay: 15-keto prostaglandin-Δ^13-reductase inhibition assay
# Type: biochemical
# Conditions: different concentrations of inhibitor, incubated 2 hours at 37° C.
# Procedure: as §2, with “of NADPH. […]” for “of NADPH.”
# A series of compounds were tested for their inhibitory effects on 15-keto prostaglandin-Δ^13-reductase activity. The inhibition assay was performed following the procedure described above. Different concentrations of 15-keto prostaglandin-Δ^13-reductase inhibitors were added to the reaction mixture and incubated for 2 hours at 37° C.
row,inhibition of 15-keto prostaglandin-Δ^13-reductase activity,SMILES
1,inhibited,"O=C(/C=C/c1cccc(O)c1)c1ccccc1O [3,2′-dihydroxychalcone]"
2,inhibited,"O=C(/C=C/c1ccccc1)c1ccc(O)cc1O [2′,4′-dihydroxychalcone]"
3,inhibited,"CC(=O)CC(c1ccccc1)c1c(O)c2ccccc2oc1=O (stereo not shown) [warfarin, reference compound]"
4,inhibited,O=c1c(O)c(-c2ccc(O)cc2)oc2cc(O)cc(O)c12 [kaempferol]
5,inhibited,"O=C(/C=C/c1ccc(O)cc1)c1ccccc1O [4,2′-dihydroxychalcone]"
6,inhibited,"O=c1oc2ccccc2c(O)c1Cc1c(O)c2ccccc2oc1=O [3,3′-methylene-bis(4-hydroxycoumarin)]"
7,inhibited,"O=c1c(O)c(-c2cccc(O)c2)oc2ccccc12 [3,3′-dihydroxyflavone]"
8,inhibited,O.O.O=c1c(O)c(-c2ccc(O)c(O)c2)oc2cc(O)cc(O)c12 [quercetin dehydrate]
9,inhibited,"O=c1cc(-c2ccccc2)oc2cc(O)cc(O)c12 [5,7-dihydroxyflavone]"
10,inhibited,"COc1cc(O)c(C(=O)/C=C/c2cc(Br)ccc2O)c(OC)c1 [5-bromo-2,2′-dihydroxy-4′,6′-dimethoxychalcone]"
11,inhibited,O=c1cc(-c2ccc(O)c(O)c2)oc2cc(O)cc(O)c12 [luteolin]
12,inhibited,"O=C(/C=C/c1ccccc1O)c1cc(O)ccc1O [2,2′,5′-trihydroxychalcone]"
13,inhibited,"O=C(/C=C/c1ccccc1O)c1ccc(O)cc1O [2,2′,4′-trihydroxychalcone]"
14,inhibited,"O=C(/C=C/c1ccccc1O)c1ccccc1O [2,2′-dihydroxychalcone]"

row,SMILES,inhibition of 15-keto prostaglandin-Δ^13-reductase activity
1,O=c1cc(O)c2ccccc2o1 [4-hydroxycoumarin],inhibited

# Tested on: 3T3-L1 cells
# Assay: Glucose transport assay, uptake of 2-deoxy-D-[3H]glucose in differentiated 3T3-L1 cells
# Type: cell-based, mouse
# Conditions: 1.67 μM inhibitor vs 45 nM AVANDIA
# Procedure: 3T3-L1 cells were induced to differentiate in the same manner as described above. A glucose transport assay was performed by measuring uptake of 2-deoxy-D-[3H]glucose as described by Fingar et al. See Fingar et al., Endocrinology 134:728-735. 1.67 μM of the inhibitor or 45 nM of a PPAR agonist, i.e., AVANDIA, was added to the cells. 10 μM cytochalasin-B was used to measure background glucose uptake levels.
row,SMILES,ability to enhance glucose uptake compared with AVANDIA
1,"O=c1oc2ccccc2c(O)c1Cc1c(O)c2ccccc2oc1=O [3,3′-methylene-bis(4-hydroxycoumarin)]",comparable to that of AVANDIA

# Same assay, conditions: 1.67 μM inhibitor, 100 nM insulin, differentiated 3T3-L1 cells
row,SMILES,increase of glucose uptake
1,"O=c1oc2ccccc2c(O)c1Cc1c(O)c2ccccc2oc1=O [3,3′-methylene-bis(4-hydroxycoumarin)]",30 folds

# Tested on: PPAR-gamma1 and PPAR-gamma2
# Assay: PPAR-gamma1 and PPAR-gamma2 protein expression in 3T3-L1 cells
# Type: cell-based, mouse
# Conditions: 15-keto PGE2 and MIX added with insulin and dexamethasone
row,SMILES,PPAR-gamma1 and PPAR-gamma2 expression
1,CCCCCC(=O)/C=C/[C@H]1[C@H](O)CC(=O)[C@@H]1C/C=C\CCCC(=O)O [15-keto PGE2],significantly enhanced

# Tested on: IRS-1
# Assay: IRS-1 protein expression in 3T3-L1 cells
# Type: cell-based, mouse
# Conditions: not given
# Source text: as §3
row,SMILES,amount of IRS-1 protein
1,CCCCCC(=O)/C=C/[C@H]1[C@H](O)CC(=O)[C@@H]1C/C=C\CCCC(=O)O [15-keto PGE2],did not increase

# Tested on: aP2
# Assay: aP2 expression in 3T3-L1 cells
# Type: cell-based, mouse
# Conditions: even in the absence of MIX
row,SMILES,expression of aP2
1,CCCCCC(=O)/C=C/[C@H]1[C@H](O)CC(=O)[C@@H]1C/C=C\CCCC(=O)O [15-keto PGE2],strongly induced

# Tested on: endogenous PPAR
# Assay: Reporter gene assay of endogenous PPAR activity in differentiating 3T3-L1 cells
# Type: cell-based, mouse
# Conditions: 3T3-L1 cells induced to differentiate for two days, transfected with reporter gene
# Procedure: as §1
row,SMILES,endogenous PPAR activity (reporter gene)
1,"CCCCCC(=O)CC[C@H]1[C@H](O)CC(=O)[C@@H]1C/C=C\CCCC(=O)O [13,14-dihydro-15-keto PGE2, reference compound]",failed to increase PPAR activity
2,CCCCCC(=O)/C=C/[C@H]1[C@H](O)CC(=O)[C@@H]1C/C=C\CCCC(=O)O [15-keto PGE2],enhanced endogenous PPAR activity significantly
3,CCCCCC(=O)/C=C/[C@@H]1[C@@H](C/C=C\CCCC(=O)O)[C@@H](O)C[C@H]1O [15-keto PGF2α],enhanced endogenous PPAR activity significantly
4,"CCCCCC(=O)CC[C@@H]1[C@@H](C/C=C\CCCC(=O)O)[C@@H](O)C[C@H]1O [13,14-dihydro-15-keto PGF2α, reference compound]",failed to increase PPAR activity
